Results on 17 compounds are retold here after patent publication US20250092080A1, “FLEX-NUCLEOSIDE ANALOGUES, NOVEL THERAPEUTICS AGAINST VIRUSES” (priority 2022, published 2025).

Structures are written as SMILES. Several values for one entry are separate records, joined by “and”; a condition that tells them apart may be missing. Equal values may be shown once. Read-outs that look alike come from different tables or passages of the source. A value given as a limit tells only on which side of the number the result lay.

In series [1] the test system is Ebola Virus. In words: microbe, parasite or virus in culture. The format is cell-based, strain Zaire.
Series [2] can be described thus: Cell viability in A549 (parallel to Rubella screening). The format is cell-based. The note with it: human, A549 cells, RA-0001522.
The next series deals with Rubella Virus. Kind of series: Rubella Virus antiviral screening, A549. The format is cell-based.
The nature of series [3]: in vitro.
The test system of the next series is Rift Valley Fever Virus. Kind of series: microbe, parasite or virus in culture. Type of series: cell-based.
The nature of series [4]: in vitro. As to conditions: human.
Series [5] has as its system Dengue Virus 2. In words: DENV2 antiviral activity (Tables 11-15). Type of series: cell-based. As to conditions: for IC50: DENV2.
In the next series the test system is Huh7 cells. The note with it: human.
Another series relates to Dengue Virus 4. In words: DENV4 antiviral activity (Tables 11-15). Type of series: cell-based.
For series [6], the system named is Ebola Virus. In words: microbe, parasite or virus in culture. Type of series: cell-based. The note with it: Zaire ebolavirus, Huh-7.
Series [7] can be described thus: Cytotoxicity printed in the DENV4 lines (Tables 11-15). As to conditions: cells not given. Type of series: cell-based.
Series [8] can be described thus: in vitro. As to conditions: human. This is another data set of the same source.
The subject of another series is SARS-CoV-2 (Omicron). In words: SARS-CoV-2 (Omicron) (Calu3) #1 antiviral activity. Type of series: cell-based. The note with it: Severe acute respiratory syndrome coronavirus 2; Omicron strain in Calu-3 cells; lab #1.
Another series deals with SARS-CoV-2. Kind of series: SARS-CoV-2 (A549) #2 antiviral activity. The format is cell-based. As to conditions: Severe acute respiratory syndrome coronavirus 2, lab #2.
Series [9] in a line: Cytotoxicity, A549 cells, lab #1. As to conditions: human.
In the next series the test system is SARS-CoV-2 (WA-1). Kind of series: SARS-CoV-2 (WA)(A549) #1 antiviral activity. The format is cell-based. The note with it: Severe acute respiratory syndrome coronavirus 2; WA-1 strain in A549 cells; lab #1.
A further series has as its system Chikungunya Virus. In words: CHIKV antiviral activity (Tables 11-15). Type of series: cell-based.
A short description of series [10]: in vitro. The source holds these as a separate data set.
Series [11] deals with Venezuelan Equine Encephalitis Virus. Kind of series: microbe, parasite or virus in culture. Type of series: cell-based.
The nature of series [12]: Cytotoxicity printed in the CHIKV line (Table 11).
Series [13] is described as follows: Cytotoxicity, A549, lab #2. The note with it: human, A549 cells.
Another series concerns Epstein-Barr virus. Kind of series: microbe, parasite or virus in culture. Type of series: cell-based, strain Akata. The note with it: human gammaherpesvirus 4, Akata.
Series [14] in a line: in vitro. The note with it: human. The source holds these as a separate data set.
The test system of series [15] is Dengue Virus 2. In words: microbe, parasite or virus in culture. The format is cell-based, strain New Guinea C. The note with it: Huh-7.
The test system of the next series is Enterovirus-71. In words: organism not typed. Type of series: cell-based.
Another series has as its system MERS Coronavirus. The format is cell-based, strain EMC.
Series [16] in a line: Cytotoxicity, Calu3 (WA test). Type of series: cell-based. The note with it: human, Calu3 cells; Calu3 (WA lines).
The test system of a further series is SARS-CoV-2 (WA). In words: SARS-CoV-2 (WA)(Calu3) antiviral activity. The format is cell-based, WA strain. The note with it: Severe acute respiratory syndrome coronavirus 2, Calu-3.

The term EC50 denotes the concentration that produces a half-maximal response. Usually IC50 stands for the concentration that gives 50% inhibition. The term IC90 denotes the concentration at which the effect reaches the 90% level. Lower therefore signals greater potency. Turning to `CNc1nc(N)ncc1-c1cn([C@@H]2O[C@H](COP(=O)(NC(C)C(=O)OC(C)C)Oc3ccccc3)C(O)C2(C)F)cn1` (stereo in doubt) [CDW3-002, propan-2-yl-(2S)-2-(((((2R,3R,4R,5R)-5-(4-(2-amino-4-(methylamino)pyrimidin-5-yl)-1H-imidazol-1-yl)-4-fluoro-3-hydroxy-4-methyloxolan-2-yl)methyl)(phenyl)phosphono)amino) propanoate], the EC50 with Ebola Virus [1] (Zaire ebolavirus, Vero, read-out: EC50) is 30 µM. In addition, the CC50 is 97.2 µM in [2] and above 100 µM in “in vitro [3]”. In addition, the results for the IC50 in the series on Rubella Virus and in the series with Rift Valley Fever Virus were 69.9 µM and 74.9 µM, respectively. Besides, the IC90 in the series on Rubella Virus and in the series on Rift Valley Fever Virus was above 100 µM each time.
In the case of `COc1ncc(-c2cn([C@@H]3O[C@H](CO[P@@](=O)(N[C@@H](C)C(=O)OC(C)C)Oc4ccccc4)[C@H](O)C3(C)F)cn2)c(OC)n1` (stereo partly shown) [CDW3-007], the figures for the CC50 in the series “in vitro [4]” and in the series on Huh7 cells were 274 µM and above 200 µM, respectively. The IC50 in the series with Dengue Virus 2 [5] was 45 µM; with Dengue Virus 4 (DENV4) it was above 50 µM.
With `CC(C)OC(=O)[C@H](C)N[P@](=O)(OC[C@H]1O[C@@H](n2cnc(-c3cnc(N)nc3)c2)C(C)(F)[C@H]1O)Oc1ccccc1` (stereo partly shown) [CDW3-014], the IC50 in the series with Ebola Virus [6] turned out to be 10.5 µM. The compound further returned a CC50 in “in vitro [4]” of 33.4 µM. For the same compound, the inhibition at 50 µM amounted to 13.6% with Dengue Virus 2 [5] (DENV2, read-out: % inhib) and 27% in the series on Dengue Virus 4 (DENV4, read-out: % inhib).
For `COc1ncc(-c2cn([C@@H]3O[C@H](CO[P@@](=O)(N[C@@H](C)C(=O)OC(C)C)Oc4ccccc4)[C@H](O[P@@](=O)(N[C@@H](C)C(=O)OC(C)C)Oc4ccccc4)C3(C)F)cn2)c(OC)n1` (stereo partly shown) [CDW3-015], the CC50 in [7] is above 100 µM; in “in vitro [4]” it was above 200 µM; in the series “in vitro [8]” it was 1.74 µM; in [9], above 100 µM. Also, the IC50 in the series with Ebola Virus [6] came out at 47 µM; in the series with SARS-CoV-2 (Omicron) it was 19.7 µM; with SARS-CoV-2, 2.95 µM; in the series on SARS-CoV-2 (WA-1), 12.4 µM; in the series on Dengue Virus 4 (DENV4), 16 µM. Moreover, it took 26 µM to reach the 90% level with Dengue Virus 4 (DENV4) (IC90).
For the compound `CNc1cc(-c2cncn2[C@@H]2O[C@H](CO[P@@](=O)(N[C@@H](C)C(=O)OC(C)C)Oc3ccccc3)[C@H](O[P@@](=O)(N[C@@H](C)C(=O)OC(C)C)Oc3ccccc3)C2(C)F)nc(N)n1` (stereo partly shown) [CEM-034], the EC50 in the series with Chikungunya Virus came out at 19.9 µM; in series [11], 19.7 µM. The IC50 with Ebola Virus [6] amounted to 13.5 µM; in the series on Dengue Virus 2 [5], 14 µM; in the series on SARS-CoV-2 (Omicron), 22.6 µM; with SARS-CoV-2 it was 6.47 µM; in the series with SARS-CoV-2 (WA-1), 13.6 µM; in the series with Dengue Virus 4 (DENV4), 18 µM. Moreover, the CC50 in the series “in vitro [10]” was above 100 µM; in “in vitro [4]”, 85 µM; in the series “in vitro [8]”, 35.4 µM; in series [9], 4.05 µM; in [12] it was above 100 µM; in series [13] it was 15.4 µM.
The term EC90 denotes the point of the concentration-response curve where the effect stands at 90%. Read a low EC90 as greater potency. Take `Cc1ccc(-c2cn([C@@H]3C[C@@H](O)[C@H](CO)O3)c(=O)[nH]c2=O)s1` [CHK-03, 1-((2S,4R,5S)-4-hydroxy-5-(hydroxymethyl)tetrahydrofuran-2-yl)-5-(5-methylthiophen-2-yl)pyrimidine-2,4(1H,3H)-dione]: the EC90 in the series on Epstein-Barr virus was 18.7 µM. Besides, the EC50 in the series on Epstein-Barr virus (read-out: EC50) was determined as 2.97 µM. This compound also returned a CC50 in “in vitro [14]” above 100 µM.
As for `Nc1nc(=O)n([C@@H]2C[C@@H](O)[C@H](CO)O2)cc1-c1ccco1` [CHK-05, 4-amino-5-(furan-2-yl)-1-((2S,4R,5S)-4-hydroxy-5-(hydroxymethyl)tetrahydrofuran-2-yl)pyrimidin-2(1H)-one], the EC50 was 69.9 µM in the series with Epstein-Barr virus (read-out: EC50), 79 µM with Dengue Virus 2 [15] and 24 µM in the series with Enterovirus-71.
In the series on Epstein-Barr virus, `Nc1ccn(C[C@@H](CO)OCP(=O)(O)O)c(=O)n1` [Cidofovir, reference compound] came in with a concentration giving a half-maximal response (EC50) of 3.92 µM and an EC90 of 71.4 µM. Moreover, the CC50 in “in vitro [14]” is above 100 µM.
Consider `O=c1nc(NO)ccn1[C@@H]1O[C@H](CO)[C@@H](O)[C@H]1O` [EIDD-1931], for which the EC50 in the series on MERS Coronavirus is 0.036 µg/mL and 0.034 µg/mL.
In the series with Ebola Virus [1] (Zaire ebolavirus, Vero), `NC(=O)c1nc(F)c[nH]c1=O` [Favipiravir, reference compound] registered an EC50 of 12 µM.
Consider `COc1nc(N)ncc1-c1cn(COCCO)cn1` [JT-001], for which the EC90 in the series with Epstein-Barr virus was above 100 µM. Besides, the EC50 in the series on Epstein-Barr virus (read-out: EC50) worked out at 59.9 µM. This compound came in with a CC50 in the series “in vitro [14]” above 100 µM.
In the case of `COc1ncc(-c2cn(COCCO)cn2)c(OC)n1` [JT-004], in the series on Epstein-Barr virus, the EC90 is above 100 µM. Moreover, in the series on Epstein-Barr virus (read-out: EC50), the EC50 was 86.8 µM. In the series “in vitro [14]”, this compound displayed a CC50 above 100 µM.
Turning to `CCC(CC)COC(=O)[C@H](C)NP(=O)(OCCOCn1cnc(-c2cnc(OC)nc2OC)c1)Oc1ccccc1` (stereo partly shown) [JT-005], in the series on Vero, the CC50 was above 100 µM. The EC50 in the series on Ebola Virus [1] (read-out: EC50) was determined as 12 µM.
Take `COc1ncc(-c2cn(COCCOC(C)=O)cn2)c(OC)n1` [JT-006]: in the series with Epstein-Barr virus, the EC90 is above 100 µM. For the same compound, the EC50 in the series on Epstein-Barr virus (read-out: EC50) stood at 79.9 µM. The same compound displayed a CC50 in “in vitro [14]” above 100 µM.
Turning to `CCC(CC)COC(=O)[C@H](C)N[P@](=O)(OCCOCn1cncc1-c1cnc(OC)nc1OC)Oc1ccccc1` [JT-092], the CC50 in series [16] and in series [9] was above 100 µM throughout. In addition, the IC50 came out at 82.8 µM in the series on SARS-CoV-2 (WA) and 29.7 µM in the series on SARS-CoV-2 (WA-1). Moreover, the results for the IC90 with SARS-CoV-2 (WA) and with SARS-CoV-2 (WA-1) were 172 µM and 273 µM, respectively.
`CCC(=O)OCCOCn1cnc(-c2cnc(OC)nc2)c1` [JT-093]: the IC50 was 21 µM in the series on Dengue Virus 2 [5] and above 50 µM in the series on Dengue Virus 4 (DENV4).
Turning to `CCC(CC)COC(=O)[C@H](C)N[P@](=O)(OCCOCn1cncc1-c1cnc(N)nc1OC)Oc1ccccc1` [JT-096], the CC50 in series [16] was above 100 µM; in the series “in vitro [4]”, 28 µM; in series [9], 73.3 µM. Also, the IC50 is 52 µM in the series with Ebola Virus [6]; above 28 µM in the series on Dengue Virus 2 [5]; 31.4 µM with SARS-CoV-2 (WA); 10.5 µM in the series with SARS-CoV-2 (WA-1); above 42 µM with Dengue Virus 4 (DENV4). In addition, the IC90 in the series with SARS-CoV-2 (WA) was 106 µM; in the series on SARS-CoV-2 (WA-1) it was 46.3 µM.
